ChEMBL document CHEMBL3885881, “DrugMatrix”

Species: Rattus norvegicus
Test: DrugMatrix - Regimen: Daily Repeat
Assay type: toxicity, organism-based, Sprague-Dawley
Parameters: regimen Daily Repeat, gender Male, age 6-8 weeks
Conditions: in vivo, po, 490 mg/kg, route oral GAVAGE, dose level High, vehicle .5 % CMC; for ABSOLUTE BASOPHIL / ABSOLUTE EOSINOPHIL / ABSOLUTE LYMPHOCYTE / ABSOLUTE SEGMENTED NEUTROPHIL / BASOPHIL / EOSINOPHIL / ERYTHROCYTE COUNT / HEMATOCRIT / HEMOGLOBIN / LEUKOCYTE COUNT / LYMPHOCYTE / MEAN CORPUSCULAR HEMOGLOBIN / MEAN CORPUSCULAR HEMOGLOBIN CONCENTRATION / MEAN CORPUSCULAR VOLUME / MONOCYTE / NEUTROPHIL / NUCLEATED RED BLOOD CELLS / PLATELET COUNT: tissue Blood; for ALANINE AMINOTRANSFERASE / ASPARTATE AMINOTRANSFERASE / BLOOD UREA NITROGEN / CARBON DIOXIDE / CHLORIDE / CHOLESTEROL / CREATINE PHOSPHOKINASE / CREATININE / GLUCOSE / LACTATE DEHYDROGENASE / LIPASE / PHOSPHORUS / POTASSIUM / SODIUM / TOTAL BILIRUBIN / TOTAL PROTEIN / URIC ACID: tissue Plasma

NC(=O)N1c2ccccc2C=Cc2ccccc21 [CARBAMAZEPINE]
ABSOLUTE BASOPHIL (72 h, time 3 day): 0 CELLS/uL
ABSOLUTE EOSINOPHIL (72 h, time 3 day): 197 CELLS/uL
ABSOLUTE LYMPHOCYTE (72 h, time 3 day): 13021 CELLS/uL
ABSOLUTE SEGMENTED NEUTROPHIL (72 h, time 3 day): 740.67 CELLS/uL
BASOPHIL (72 h, time 3 day): 0%
EOSINOPHIL (72 h, time 3 day): 1%
ERYTHROCYTE COUNT (72 h, time 3 day): 6.01 x10E6/uL
HEMATOCRIT (72 h, time 3 day): 37.5%
HEMOGLOBIN (72 h, time 3 day): 14.23 G/DL
LEUKOCYTE COUNT (72 h, time 3 day): 14.27 x10E3/uL
LYMPHOCYTE (72 h, time 3 day): 91.33%
MEAN CORPUSCULAR HEMOGLOBIN (72 h, time 3 day): 23.77 pg
MEAN CORPUSCULAR HEMOGLOBIN CONCENTRATION (72 h, time 3 day): 37.97 G/DL
MEAN CORPUSCULAR VOLUME (72 h, time 3 day): 62.57 fL
MONOCYTE (72 h, time 3 day): 2%
NEUTROPHIL (72 h, time 3 day): 5.67%
NUCLEATED RED BLOOD CELLS (72 h, time 3 day): 0 /100WBC
PLATELET COUNT (72 h, time 3 day): 1370 x10E3/uL
ALANINE AMINOTRANSFERASE (72 h, time 3 day): 67 u/L
ASPARTATE AMINOTRANSFERASE (72 h, time 3 day): 98.33 u/L
BLOOD UREA NITROGEN (72 h, time 3 day): 20.33 mg/dL
CARBON DIOXIDE (72 h, time 3 day): 23.67 mmol/L
CHLORIDE (72 h, time 3 day): 100.67 MEQ/L
CHOLESTEROL (72 h, time 3 day): 62.67 mg/dL
CREATINE PHOSPHOKINASE (72 h, time 3 day): 423.33 u/L
CREATININE (72 h, time 3 day): 0.18 mg/dL
GLUCOSE (72 h, time 3 day): 127 mg/dL
LACTATE DEHYDROGENASE (72 h, time 3 day): 617.67 u/L
LIPASE (72 h, time 3 day): 9.33 u/L
PHOSPHORUS (72 h, time 3 day): 11.33 mg/dL
POTASSIUM (72 h, time 3 day): 6.92 MEQ/L
SODIUM (72 h, time 3 day): 141.13 MEQ/L
TOTAL BILIRUBIN (72 h, time 3 day): 0.17 mg/dL
TOTAL PROTEIN (72 h, time 3 day): 5.83 G/DL
URIC ACID (72 h, time 3 day): 1.87 mg/dL
ABSOLUTE BASOPHIL (120 h, time 5 day): 0 CELLS/uL
ABSOLUTE EOSINOPHIL (120 h, time 5 day): 174 CELLS/uL
ABSOLUTE LYMPHOCYTE (120 h, time 5 day): 14815.33 CELLS/uL
ABSOLUTE SEGMENTED NEUTROPHIL (120 h, time 5 day): 1394.67 CELLS/uL
BASOPHIL (120 h, time 5 day): 0%
EOSINOPHIL (120 h, time 5 day): 1%
ERYTHROCYTE COUNT (120 h, time 5 day): 6.46 x10E6/uL
HEMATOCRIT (120 h, time 5 day): 39.9%
HEMOGLOBIN (120 h, time 5 day): 15.17 G/DL
LEUKOCYTE COUNT (120 h, time 5 day): 17.07 x10E3/uL
LYMPHOCYTE (120 h, time 5 day): 86.67%
MEAN CORPUSCULAR HEMOGLOBIN (120 h, time 5 day): 23.47 pg
MEAN CORPUSCULAR HEMOGLOBIN CONCENTRATION (120 h, time 5 day): 38.03 G/DL
MEAN CORPUSCULAR VOLUME (120 h, time 5 day): 61.8 fL
MONOCYTE (120 h, time 5 day): 4%
NEUTROPHIL (120 h, time 5 day): 8.33%
NUCLEATED RED BLOOD CELLS (120 h, time 5 day): 0.67 /100WBC
PLATELET COUNT (120 h, time 5 day): 1286 x10E3/uL
ALANINE AMINOTRANSFERASE (120 h, time 5 day): 89 u/L
ASPARTATE AMINOTRANSFERASE (120 h, time 5 day): 125 u/L
BLOOD UREA NITROGEN (120 h, time 5 day): 18.67 mg/dL
CARBON DIOXIDE (120 h, time 5 day): 23.67 mmol/L
CHLORIDE (120 h, time 5 day): 105 MEQ/L
CHOLESTEROL (120 h, time 5 day): 67.33 mg/dL
CREATINE PHOSPHOKINASE (120 h, time 5 day): 770 u/L
CREATININE (120 h, time 5 day): 0.14 mg/dL
GLUCOSE (120 h, time 5 day): 120 mg/dL
LACTATE DEHYDROGENASE (120 h, time 5 day): 265.67 u/L
LIPASE (120 h, time 5 day): 9.5 u/L
PHOSPHORUS (120 h, time 5 day): 12.47 mg/dL
POTASSIUM (120 h, time 5 day): 6.33 MEQ/L
SODIUM (120 h, time 5 day): 149.25 MEQ/L
TOTAL BILIRUBIN (120 h, time 5 day): 0.2 mg/dL
TOTAL PROTEIN (120 h, time 5 day): 6.23 G/DL
URIC ACID (120 h, time 5 day): 2.13 mg/dL
